Laboratory results taken from patent US7655767B2, “Use of thiazolyl-pyridinium based dyes in optical layers for optical data recording” (priority 2004, dated 2010).

Tests used:
[1] = Thermal decomposition (TGA / DSC); assay type: physicochemical
Description: The optical and thermal properties of the thiazolyl-pyridinium based dye compounds were studied. The dyes show high absorption at the desired wavelengths. In addition, the shape of the absorption spectra, that still remains critical to the disc reflectivity and formation of clean mark edges, are composed of one major band, comprised in a range of from 350 to 500 nm, preferably of from 350 to 400 nm.
Sharp threshold of thermal decomposition within the required temperature range characterizes the new thiazolylpyridinium based dyes which are assumed to be desirable for the application in optical layers for optical data recording.

[2] = Solubility in 2,2,3,3-tetrafluoropropanol; details: 20 °C, organic solvent or mixture

Row | SMILES | TGA (decomp.) [1] [°C] | solubility [2] [mg/mL]
1 | CC(C)[n+]1ccc(-c2nc(-c3ccccc3)cs2)cc1.[I-] [Example 7, 1-isopropyl-4-[4-phenyl-thiazolyl-(2)]-pyridiniumiodide] | 270 | > 50
2 | C[n+]1ccc(-c2nc(C(C)(C)C)cs2)cc1.[I-] [Example 8, 1-methyl-4-[4-tert-butyl-thiazolyl-(2)]-pyridiniumiodide] | – | > 5e-05
3 | C[n+]1ccc(-c2nc(-c3ccccc3)cs2)cc1.[I-] [Example 9, 1-methyl-4-[4-phenyl-thiazolyl-(2)]-pyridinium iodide] | 260 | > 30
4 | COc1ccc(-c2csc(-c3cc[n+](C)cc3)n2)cc1.[I-] [Example 10, 4-[4-(4-methoxy-phenyl)-thiazol-2-yl]-1-methyl-pyridinium iodide] | 250 | > 50

The next lines start with results.

Row | TGA (decomp.) [1] [°C] | SMILES | solubility [2] [mg/mL]
5 | 240 | COc1ccc(-c2csc(-c3cc[n+](C(C)C)cc3)n2)cc1 [Example 11] | > 50
6 | 244 | C[n+]1ccc(-c2nc3ccc(Cl)cc3s2)cc1.[I-] [Example 12, 1-methyl-4-(6-chlor-benzothiazol-2-yl)pyridinium iodide] | > 50
